Test results as given in patent US8178570B2, “Tie-2 modulators and methods of use” (Exelixis, Inc., priority 2003, dated 2012).
pIC50: −log10 of the molar value.

Molecular target: Tie-2 (Homo sapiens, UniProt Q02763)
Assay: Tie-2 tyrosine kinase activity: kinase-dependent ATP consumption (pEY substrate, luciferase/luciferin chemiluminescence) or 33P-ATP incorporation into substrate
Type: biochemical
Details: Tie-2 (human enzyme) inhibition, Table 2, class symbols A-D
Outline: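 Values are IC50 categories: A below 50 nM, B above 50 to 1000 nM, C above 1000 to below 10,000 nM, D 10,000 nM or more. They were measured by 33P-ATP phosphate transfer onto a generic substrate bound to the plate (scintillation), or by luminescent luciferase detection of ATP used with pEY.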

Tie-2, sequence (Q02763 23-1124): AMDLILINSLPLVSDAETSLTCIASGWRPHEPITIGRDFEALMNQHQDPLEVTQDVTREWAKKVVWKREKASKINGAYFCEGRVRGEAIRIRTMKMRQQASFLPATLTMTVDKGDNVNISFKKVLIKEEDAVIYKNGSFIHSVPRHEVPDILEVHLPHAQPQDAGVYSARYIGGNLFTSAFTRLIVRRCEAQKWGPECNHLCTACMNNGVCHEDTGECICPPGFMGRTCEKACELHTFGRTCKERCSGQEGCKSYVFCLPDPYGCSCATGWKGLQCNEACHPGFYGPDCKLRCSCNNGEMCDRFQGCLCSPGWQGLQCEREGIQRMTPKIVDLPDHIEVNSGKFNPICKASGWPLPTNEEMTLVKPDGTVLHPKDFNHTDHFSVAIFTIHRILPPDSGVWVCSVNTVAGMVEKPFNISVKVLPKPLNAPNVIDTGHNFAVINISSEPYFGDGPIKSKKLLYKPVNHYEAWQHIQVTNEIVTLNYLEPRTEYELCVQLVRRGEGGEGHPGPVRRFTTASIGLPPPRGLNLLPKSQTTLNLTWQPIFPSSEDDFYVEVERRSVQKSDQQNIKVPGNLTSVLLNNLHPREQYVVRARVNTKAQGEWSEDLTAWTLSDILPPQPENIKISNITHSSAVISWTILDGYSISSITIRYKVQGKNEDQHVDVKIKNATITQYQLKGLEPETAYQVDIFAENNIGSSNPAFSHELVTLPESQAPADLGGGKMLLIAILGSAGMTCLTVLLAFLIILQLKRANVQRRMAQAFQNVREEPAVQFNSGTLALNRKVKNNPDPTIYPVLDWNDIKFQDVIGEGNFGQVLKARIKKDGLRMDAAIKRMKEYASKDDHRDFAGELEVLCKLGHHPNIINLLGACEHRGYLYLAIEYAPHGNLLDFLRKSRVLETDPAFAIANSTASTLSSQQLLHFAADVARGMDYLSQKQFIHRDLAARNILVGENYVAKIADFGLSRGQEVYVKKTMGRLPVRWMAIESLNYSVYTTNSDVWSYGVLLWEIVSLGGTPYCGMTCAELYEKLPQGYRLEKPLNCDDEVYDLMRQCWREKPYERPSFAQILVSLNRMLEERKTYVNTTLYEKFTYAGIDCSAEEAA

Structure (SMILES)	pIC50
COc1ccc(-c2nc(-c3ccncc3)nn2CCN(C(=O)c2ccccc2)C2CCCC2)cc1Cl [Entry 26, N-(2-{5-[3-chloro-4-(methyloxy)phenyl]-3-pyridin-4-yl-1H-1,2,4-triazol-1-yl}ethyl)-N-cyclopentylbenzamide]	≤ 5.00
COc1ccc(-c2nc(-c3ccncc3)nn2CCN(C(=O)Nc2ccc(Cl)cc2Cl)C2CCCC2)cc1Cl [Entry 83, N-(2-{5-[3-chloro-4-(methyloxy)phenyl]-3-pyridin-4-yl-1H-1,2,4-triazol-1-yl}ethyl)-N-cyclopentyl-N′-(2,4-dichlorophenyl)urea]	≤ 5.00
O=C(Cc1cccc2ccccc12)N(CCn1nc(-c2ccncc2)nc1-c1ccc(Br)cc1)C1CCCC1 [Entry 67, N-{2-[5-(4-bromophenyl)-3-pyridin-4-yl-1H-1,2,4-triazol-1-yl]ethyl}-N-cyclopentyl-2-naphthalen-1-ylacetamide]	> 7.30
COc1ccc(-c2nc(-c3ccncc3)nn2CCN(C(=O)Nc2ccccc2)C2CCCC2)cc1Cl [Entry 30, N-(2-{5-[3-chloro-4-(methyloxy)phenyl]-3-pyridin-4-yl-1H-1,2,4-triazol-1-yl}ethyl)-N-cyclopentyl-N′-phenylurea]	≤ 5.00
COc1ccc(-c2nc(-c3ccncc3)nn2CCN(C(=O)Nc2cc(C)ccc2C)C2CCCC2)cc1Cl [Entry 139, N-(2-{5-[3-chloro-4-(methyloxy)phenyl]-3-pyridin-4-yl-1H-1,2,4-triazol-1-yl}ethyl)-N-cyclopentyl-N′-(2,5-dimethylphenyl)urea]	5.00 to 6.00
COc1ccc(NC(=O)N(CCn2nc(-c3ccncc3)nc2-c2ccc(OC)c(Cl)c2)C2CCCC2)c(C)c1 [Entry 138, N-(2-{5-[3-chloro-4-(methyloxy)phenyl]-3-pyridin-4-yl-1H-1,2,4-triazol-1-yl}ethyl)-N-cyclopentyl-N′-[2-methyl-4-(methyloxy)phenyl]urea]	5.00 to 6.00
Cc1nc(-c2ccncc2)nn1CCN(C(=O)Cc1cccc2ccccc12)C1CCOCC1 [Entry 171, N-[2-(5-methyl-3-pyridin-4-yl-1H-1,2,4-triazol-1-yl)ethyl]-2-naphthalen-1-yl-N-(tetrahydro-2H-pyran-4-yl)acetamide]	6.00 to 7.30
O=C(Cc1cccc2ccccc12)N(CCn1nc(-c2cccc(C(F)(F)F)c2)nc1-c1ccncc1)C1CCCC1 [Entry 46, N-cyclopentyl-2-naphthalen-1-yl-N-(2-{5-pyridin-4-yl-3-[3-(trifluoromethyl)phenyl]-1H-1,2,4-triazol-1-yl}ethyl)acetamide]	≤ 5.00
COc1ccc(-c2nc(-c3ccncc3)nn2CCN(C(=O)Cc2cccc3ccccc23)C2CCCC2)cc1Cl [Entry 10, N-(2-{5-[3-chloro-4-(methyloxy)phenyl]-3-pyridin-4-yl-1H-1,2,4-triazol-1-yl}ethyl)-N-cyclopentyl-2-naphthalen-1-ylacetamide]	> 7.30
Cc1nc(-c2cc(N)nc(Cl)c2)nn1CCN(C(=O)Cc1cccc2ccccc12)C1CCCC1 [Entry 185, N-{2-[3-(2-amino-6-chloropyridin-4-yl)-5-methyl-1H-1,2,4-triazol-1-yl]ethyl}-N-cyclopentyl-2-naphthalen-1-ylacetamide]	6.00 to 7.30
COc1ccc(-c2nc(-c3ccncc3)nn2CCN(C(=O)Nc2cc(C)cc(C)c2)C2CCCC2)cc1Cl [Entry 144, N-(2-{5-[3-chloro-4-(methyloxy)phenyl]-3-pyridin-4-yl-1H-1,2,4-triazol-1-yl}ethyl)-N-cyclopentyl-N′-(3,5-dimethylphenyl)urea]	≤ 5.00
COc1ccc(-c2nc(-c3ccncc3)n(CCN(C(=O)Cc3cccc4ccccc34)C3CCCC3)n2)cc1 [Entry 40, N-cyclopentyl-N-(2-{3-[4-(methyloxy)phenyl]-5-pyridin-4-yl-1H-1,2,4-triazol-1-yl}ethyl)-2-naphthalen-1-ylacetamide]	5.00 to 6.00
COc1ccc(-c2nc(-c3ccncc3)nn2CCN(C(=O)Nc2ccc(Cl)cc2C)C2CCCC2)cc1Cl [Entry 150, N-(2-{5-[3-chloro-4-(methyloxy)phenyl]-3-pyridin-4-yl-1H-1,2,4-triazol-1-yl}ethyl)-N′-(4-chloro-2-methylphenyl)-N-cyclopentylurea]	5.00 to 6.00
COc1ccc(-c2nc(-c3ccncc3)nn2CCN(C(=O)Cc2ccccc2)C2CCCC2)cc1Cl [Entry 31, N-(2-{5-[3-chloro-4-(methyloxy)phenyl]-3-pyridin-4-yl-1H-1,2,4-triazol-1-yl}ethyl)-N-cyclopentyl-2-phenylacetamide]	5.00 to 6.00
COc1ccc(-c2nc(-c3ccncc3)nn2CCN(C(=O)Nc2cccc(Cl)c2Cl)C2CCCC2)cc1Cl [Entry 119, N-(2-{5-[3-chloro-4-(methyloxy)phenyl]-3-pyridin-4-yl-1H-1,2,4-triazol-1-yl}ethyl)-N-cyclopentyl-N′-(2,3-dichlorophenyl)urea]	≤ 5.00
CCOC(=O)Cn1nc(-c2ccncc2)nc1-c1ccc([N+](=O)[O-])cc1 [Entry 14, ethyl [5-(4-nitrophenyl)-3-pyridin-4-yl-1H-1,2,4-triazol-1-yl]acetate]	≤ 5.00
Cc1nc(-c2ccnc(NCCN3CCOCC3)c2)nn1CCN(C(=O)Cc1cccc2ccccc12)C1CCCC1 [Entry 174, N-cyclopentyl-N-[2-(5-methyl-3-{2-[(2-morpholin-4-ylethyl)amino]pyridin-4-yl}-1H-1,2,4-triazol-1-yl)ethyl]-2-naphthalen-1-ylacetamide]	> 7.30
COc1ccc(-c2nc(-c3ccncc3)nn2CCN(C(=O)Cc2cccc3ccccc23)C(C)C)cc1Cl [Entry 79, N-(2-{5-[3-chloro-4-(methyloxy)phenyl]-3-pyridin-4-yl-1H-1,2,4-triazol-1-yl}ethyl)-N-(1-methylethyl)-2-naphthalen-1-ylacetamide]	≤ 5.00
COc1ccc(-c2nc(-c3ccncc3)nn2CCN(C(=O)c2cccc3ccccc23)C2CCCC2)cc1Cl [Entry 20, N-(2-{5-[3-chloro-4-(methyloxy)phenyl]-3-pyridin-4-yl-1H-1,2,4-triazol-1-yl}ethyl)-N-cyclopentylnaphthalene-1-carboxamide]	5.00 to 6.00
O=C(Cc1cccc2ccccc12)N(CCn1nc(-c2ccncc2)nc1-c1cccc(F)c1)C1CCCC1 [Entry 56, N-cyclopentyl-N-{2-[5-(3-fluorophenyl)-3-pyridin-4-yl-1H-1,2,4-triazol-1-yl]ethyl}-2-naphthalen-1-ylacetamide]	> 7.30
O=C(Cc1cccc2ccccc12)N(CCn1nc(-c2ccncc2)nc1-c1ccccc1)C1CCCC1 [Entry 50, N-cyclopentyl-2-naphthalen-1-yl-N-[2-(5-phenyl-3-pyridin-4-yl-1H-1,2,4-triazol-1-yl)ethyl]acetamide]	> 7.30
